From publication PMC7613998, “Development of selective inhibitors of phosphatidylinositol 3-kinase C2α” (Nature Chemical Biology, 2022)
Read-outs that look alike come from different tables or passages of the source.

Legend:
Assay in all cases: biochemical
MAP2K1 (MEK1) = MAP2K1 (MEK1) (Homo sapiens, UniProt Q02750); set-up: SelectScreen LanthaScreen kinase binding assay, per cent tracer displacement, mean of two points; conditions: tracer displacement
RAF1 (cRAF) Y340D Y341D = RAF1 (cRAF) Y340D Y341D (Homo sapiens, UniProt P04049, Y340D/Y341D); set-up: SelectScreen LanthaScreen kinase binding assay, per cent tracer displacement, mean of two points; conditions: tracer displacement
CDK3/cyclin E1 = CDK3/cyclin E1 (Homo sapiens, UniProt Q00526); set-up: SelectScreen LanthaScreen kinase binding assay, per cent tracer displacement, mean of two points; conditions: tracer displacement
PIP5K1B = PIP5K1B (Homo sapiens, UniProt O14986); set-up: SelectScreen Adapta purified lipid kinase panel, 1 uM compound, 10 uM ATP, per cent inhibition; conditions: ATP=10; Technology=Adapta; 10 uM ATP
How it was run: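 Purified lipid kinases screened with inhibitors at 1 µM in the presence of 10 µM ATP; data are mean ± SD of two independent experiments.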

PI3KC2β = target: T1, PI3KC2β (Homo sapiens, UniProt O00750); set-up: ADP-Glo lipid kinase assay with liver PI substrate, luminescence; conditions: read-out: PITCOIN3 (IC50)
T1 construct: gene PIK3C2B

PI3KC2γ = target: T2, PI3KC2γ (Homo sapiens, UniProt O75747); set-up: ADP-Glo lipid kinase assay with liver PI substrate, luminescence
T2 construct: gene PIK3C2G
T2 sequence (O75747 whole entry): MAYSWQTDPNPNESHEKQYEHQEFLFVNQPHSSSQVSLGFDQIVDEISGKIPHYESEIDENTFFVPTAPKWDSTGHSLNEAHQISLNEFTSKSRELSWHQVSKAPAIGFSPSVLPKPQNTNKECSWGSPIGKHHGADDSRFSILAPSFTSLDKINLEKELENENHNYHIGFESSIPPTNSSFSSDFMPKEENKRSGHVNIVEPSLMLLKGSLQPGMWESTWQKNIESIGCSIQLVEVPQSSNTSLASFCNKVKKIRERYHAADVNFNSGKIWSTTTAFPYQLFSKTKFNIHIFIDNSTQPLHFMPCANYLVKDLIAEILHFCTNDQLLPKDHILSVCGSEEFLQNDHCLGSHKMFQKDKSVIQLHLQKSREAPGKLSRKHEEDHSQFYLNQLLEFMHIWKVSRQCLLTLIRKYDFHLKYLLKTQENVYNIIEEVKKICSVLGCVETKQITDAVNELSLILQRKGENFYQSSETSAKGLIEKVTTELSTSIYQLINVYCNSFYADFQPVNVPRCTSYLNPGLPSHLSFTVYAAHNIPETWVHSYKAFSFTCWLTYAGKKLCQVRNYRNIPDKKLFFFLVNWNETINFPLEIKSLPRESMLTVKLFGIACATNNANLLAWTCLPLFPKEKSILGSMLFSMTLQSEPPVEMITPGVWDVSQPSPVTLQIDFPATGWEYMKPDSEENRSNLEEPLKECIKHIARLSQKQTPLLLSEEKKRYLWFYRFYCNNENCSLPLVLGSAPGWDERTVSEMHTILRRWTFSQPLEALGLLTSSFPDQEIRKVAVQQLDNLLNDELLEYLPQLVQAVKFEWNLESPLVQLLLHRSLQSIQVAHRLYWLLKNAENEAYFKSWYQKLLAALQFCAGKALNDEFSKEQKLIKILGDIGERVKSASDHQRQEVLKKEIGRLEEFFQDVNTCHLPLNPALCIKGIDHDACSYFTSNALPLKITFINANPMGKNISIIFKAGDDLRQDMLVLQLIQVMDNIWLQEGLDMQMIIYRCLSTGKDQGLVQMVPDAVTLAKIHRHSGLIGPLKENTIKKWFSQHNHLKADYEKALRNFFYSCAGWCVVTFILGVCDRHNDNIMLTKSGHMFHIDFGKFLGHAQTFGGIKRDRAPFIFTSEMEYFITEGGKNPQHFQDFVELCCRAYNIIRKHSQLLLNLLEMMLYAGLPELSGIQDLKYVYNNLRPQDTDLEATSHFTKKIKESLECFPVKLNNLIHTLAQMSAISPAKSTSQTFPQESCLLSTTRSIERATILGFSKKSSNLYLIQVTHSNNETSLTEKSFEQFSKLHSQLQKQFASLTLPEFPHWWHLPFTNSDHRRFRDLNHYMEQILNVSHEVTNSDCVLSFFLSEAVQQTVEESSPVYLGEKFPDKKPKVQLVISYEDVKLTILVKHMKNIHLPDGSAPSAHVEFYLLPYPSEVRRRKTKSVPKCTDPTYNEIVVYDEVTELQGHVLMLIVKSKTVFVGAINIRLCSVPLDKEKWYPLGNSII

Chain of RAF1 (cRAF) Y340D Y341D (P04049 whole entry Y340D/Y341D): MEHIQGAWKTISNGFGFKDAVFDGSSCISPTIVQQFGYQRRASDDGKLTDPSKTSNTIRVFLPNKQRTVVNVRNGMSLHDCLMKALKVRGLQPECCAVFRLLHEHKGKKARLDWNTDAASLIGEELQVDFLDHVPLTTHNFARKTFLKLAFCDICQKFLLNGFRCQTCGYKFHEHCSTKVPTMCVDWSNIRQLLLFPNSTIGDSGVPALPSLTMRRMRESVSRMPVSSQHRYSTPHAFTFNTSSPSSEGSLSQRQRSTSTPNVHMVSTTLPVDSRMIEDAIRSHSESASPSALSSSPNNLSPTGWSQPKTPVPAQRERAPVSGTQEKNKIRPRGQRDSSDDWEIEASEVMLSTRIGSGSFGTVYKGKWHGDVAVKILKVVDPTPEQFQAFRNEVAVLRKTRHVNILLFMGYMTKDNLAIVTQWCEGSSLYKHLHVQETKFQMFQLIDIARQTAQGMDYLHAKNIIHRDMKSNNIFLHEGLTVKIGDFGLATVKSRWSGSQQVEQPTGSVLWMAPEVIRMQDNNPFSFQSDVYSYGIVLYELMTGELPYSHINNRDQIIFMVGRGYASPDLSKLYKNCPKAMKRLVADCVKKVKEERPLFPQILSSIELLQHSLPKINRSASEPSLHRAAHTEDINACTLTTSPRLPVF
Chain of MAP2K1 (MEK1) (Q02750 whole entry): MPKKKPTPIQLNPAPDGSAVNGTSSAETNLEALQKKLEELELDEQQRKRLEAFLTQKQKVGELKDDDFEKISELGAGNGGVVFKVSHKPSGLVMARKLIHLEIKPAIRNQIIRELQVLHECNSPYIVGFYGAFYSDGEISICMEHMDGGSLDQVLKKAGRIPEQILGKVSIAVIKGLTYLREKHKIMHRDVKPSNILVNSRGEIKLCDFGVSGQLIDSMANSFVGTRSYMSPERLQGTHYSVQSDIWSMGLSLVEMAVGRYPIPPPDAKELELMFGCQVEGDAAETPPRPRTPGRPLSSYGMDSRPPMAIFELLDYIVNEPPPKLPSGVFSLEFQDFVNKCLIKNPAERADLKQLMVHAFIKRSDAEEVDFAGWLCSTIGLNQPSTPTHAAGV
Chain of CDK3/cyclin E1 (Q00526 whole entry): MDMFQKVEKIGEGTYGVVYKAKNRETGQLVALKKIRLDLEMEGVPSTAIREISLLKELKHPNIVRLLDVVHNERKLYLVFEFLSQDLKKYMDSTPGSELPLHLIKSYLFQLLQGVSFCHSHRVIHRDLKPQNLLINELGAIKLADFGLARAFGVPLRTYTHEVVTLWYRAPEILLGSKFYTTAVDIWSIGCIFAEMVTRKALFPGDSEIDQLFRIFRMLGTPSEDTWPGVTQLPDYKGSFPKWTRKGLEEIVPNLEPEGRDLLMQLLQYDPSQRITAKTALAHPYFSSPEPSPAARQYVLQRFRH
Chain of CDK3/cyclin E1 (P24864 whole entry partner): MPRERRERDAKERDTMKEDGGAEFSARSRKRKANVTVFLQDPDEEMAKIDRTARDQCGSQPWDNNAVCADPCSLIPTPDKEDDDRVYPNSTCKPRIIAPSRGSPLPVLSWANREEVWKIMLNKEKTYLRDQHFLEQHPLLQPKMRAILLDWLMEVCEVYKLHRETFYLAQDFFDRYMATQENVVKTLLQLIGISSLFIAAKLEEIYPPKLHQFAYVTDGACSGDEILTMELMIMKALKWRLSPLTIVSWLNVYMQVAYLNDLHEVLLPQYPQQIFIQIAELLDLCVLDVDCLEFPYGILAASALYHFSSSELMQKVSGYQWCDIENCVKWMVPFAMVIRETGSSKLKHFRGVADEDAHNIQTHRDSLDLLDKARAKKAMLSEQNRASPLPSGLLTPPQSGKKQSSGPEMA
Chain of PIP5K1B (O14986 whole entry): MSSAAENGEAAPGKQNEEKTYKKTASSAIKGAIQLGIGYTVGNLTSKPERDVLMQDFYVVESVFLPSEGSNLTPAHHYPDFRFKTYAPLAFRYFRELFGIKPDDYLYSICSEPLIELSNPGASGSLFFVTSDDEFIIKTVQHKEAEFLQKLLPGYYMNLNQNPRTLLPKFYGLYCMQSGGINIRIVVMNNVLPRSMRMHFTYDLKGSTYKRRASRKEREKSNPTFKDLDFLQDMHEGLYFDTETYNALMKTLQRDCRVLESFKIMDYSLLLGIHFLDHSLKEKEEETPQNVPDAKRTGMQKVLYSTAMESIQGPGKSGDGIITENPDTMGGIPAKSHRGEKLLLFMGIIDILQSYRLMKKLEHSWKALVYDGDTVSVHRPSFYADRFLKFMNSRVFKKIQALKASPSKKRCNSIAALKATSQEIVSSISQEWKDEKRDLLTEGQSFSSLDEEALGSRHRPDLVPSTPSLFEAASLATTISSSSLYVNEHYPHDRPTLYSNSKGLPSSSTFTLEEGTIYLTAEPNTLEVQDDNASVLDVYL

With O=C(CSc1nc2nccnc2c(=O)n1CCc1ccccc1)Nc1nccs1 [compound 1, PITCOIN1] the inhibition at 1 µM (MAP2K1 (MEK1)) was -0.281%, the inhibition at 3 µM (MAP2K1 (MEK1)) was 2.33% and the inhibition at 10 µM (MAP2K1 (MEK1)) was -0.179%. The inhibition at 1 µM (RAF1 (cRAF) Y340D Y341D) was -5.58%, the inhibition at 3 µM (RAF1 (cRAF) Y340D Y341D) was -2.49% and the inhibition at 10 µM (RAF1 (cRAF) Y340D Y341D) was -0.882%. It also gave an inhibition at 1 µM (CDK3/cyclin E1) of -0.974%, an inhibition at 3 µM (CDK3/cyclin E1) of -9.41% and an inhibition at 10 µM (CDK3/cyclin E1) of 1.77%. The inhibition at 1 µM (PIP5K1B) was 5%.

With CS(=O)(=O)Nc1cccc(-c2csc(NC(=O)CSc3nc4nccnc4c(=O)n3CCc3ccccc3)n2)c1 [compound 3, PITCOIN3] the IC50 (PI3KC2β) was over 10 µM, the inhibition at 1 µM (MAP2K1 (MEK1)) was -0.643% and the inhibition at 3 µM (MAP2K1 (MEK1)) was 0.136%. For the same compound, the inhibition at 10 µM (MAP2K1 (MEK1)) was -2.2%, the inhibition at 1 µM (RAF1 (cRAF) Y340D Y341D) was -1.02% and the inhibition at 3 µM (RAF1 (cRAF) Y340D Y341D) was 3.96%. The inhibition at 10 µM (RAF1 (cRAF) Y340D Y341D) was 3.33%, the inhibition at 1 µM (CDK3/cyclin E1) was 13.1% and the inhibition at 3 µM (CDK3/cyclin E1) was 8.71%. It also gave an inhibition at 10 µM (CDK3/cyclin E1) of -18.8% and an IC50 (PI3KC2γ; read-out: PITCOIN3 (IC50)) of over 10 µM.

In the case of O=C(CSc1nc2nccnc2c(=O)n1CCc1ccccc1)Nc1nc(-c2cccc(O)c2)cs1 [compound 2, PITCOIN2], the inhibition at 1 µM (PIP5K1B) is reported as -1% and the IC50 (PI3KC2γ; read-out: PITCOIN2 (IC50)) is reported as over 10 µM.
